In PubChem BioAssay (NCI):
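GI50: concentration for 50% inhibition of growth. Definition used: TGI = concentration required for complete inhibition of growth.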

Key:
Experiment in all cases: inhibition of tumour cell growth, NCI panel, 384-well format
[1] = system: 786-0 renal
[2] = system: A498 renal
[3] = system: A549 NSCLC
[4] = system: ACHN renal
[5] = system: BT-549 breast
[6] = system: CAKI-1 renal
[7] = system: CCRF-CEM leukemia
[8] = system: COLO 205 colon
[9] = system: DU-145 prostate
[10] = system: EKVX NSCLC
[11] = system: HCC-2998 colon
[12] = system: HCT-116 colon
[13] = system: HCT-15 colon
[14] = system: HL-60(TB) leukemia
[15] = system: HOP-62 NSCLC
[16] = system: HOP-92 NSCLC
[17] = system: HS 578T breast
[18] = system: HT29 colon
[19] = system: IGROV1 ovarian
[20] = system: K-562 leukemia
[21] = system: KM12 colon
[22] = system: LOX IMVI melanoma
[23] = system: M14 melanoma
[24] = system: MALME-3M melanoma
[25] = system: MCF7 breast
[26] = system: MDA-MB-231 breast
[27] = system: MDA-MB-435 melanoma
[28] = system: MDA-MB-468 breast
[29] = system: MOLT-4 leukemia
[30] = system: NCI-H226 lung
[31] = system: NCI-H23 lung
[32] = system: NCI-H322M lung
[33] = system: NCI-H460 NSCLC
[34] = system: NCI-H522 lung
[35] = system: NCI/ADR-RES ovarian
[36] = system: OVCAR-3 ovarian
[37] = system: OVCAR-4 ovarian
[38] = system: OVCAR-5 ovarian
[39] = system: OVCAR-8 ovarian
[40] = system: PC-3 prostate
[41] = system: RPMI-8226 leukemia
[42] = system: RXF 393 renal
[43] = system: SF-268 CNS
[44] = system: SF-295 CNS
[45] = system: SF-539 CNS
[46] = system: SK-MEL-2 melanoma
[47] = system: SK-MEL-28 melanoma
[48] = system: SK-MEL-5 melanoma
[49] = system: SK-OV-3 ovarian
[50] = system: SN12C renal
[51] = system: SNB-19 CNS
[52] = system: SNB-75 CNS
[53] = system: SW-620 colon
[54] = system: T-47D breast
[55] = system: TK-10 renal
[56] = system: U251 glioblastoma
[57] = system: UACC-257 melanoma
[58] = system: UACC-62 melanoma
[59] = system: UO-31 renal

`CC[C@H](CC#N)OC(=O)N[C@@H](C)c1cccc(NC(=O)Nc2ccc(-c3cnco3)c(OC)c2)c1` gave a GI50 [1] of 154 nM, a TGI [1] of 1870 nM and a GI50 [2] of 56.9 nM. The TGI [2] was 1720 nM, the GI50 [3] was 65.7 nM and the TGI [3] was 1680 nM. It also gave a GI50 [4] of 210 nM, a TGI [4] of 12700 nM and a GI50 [5] of 115 nM. The TGI [5] was 951 nM, the GI50 [6] was 243 nM and the TGI [6] was 11900 nM. It also gave a GI50 [7] of 64.9 nM, a TGI [7] of 248 nM and a GI50 [8] of 46.3 nM. The TGI [8] was 13100 nM, the GI50 [9] was 168 nM and the TGI [9] was 11000 nM. For the same molecule, the GI50 [10] was 349 nM, the TGI [10] was 12300 nM and the GI50 [11] was 212 nM. For the same molecule, the TGI [11] was 1450 nM, the GI50 [12] was 75 nM and the TGI [12] was 10600 nM. For the same molecule, the GI50 [13] was 286 nM, the TGI [13] was 11800 nM and the GI50 [14] was 53.9 nM. For the same molecule, the TGI [14] was 220 nM, the GI50 [15] was 258 nM and the TGI [15] was 10700 nM. It also gave a GI50 [16] of 637 nM, a TGI [16] of 22700 nM and a GI50 [17] of 171 nM. It also gave a TGI [17] of 1540 nM, a GI50 [18] of 137 nM and a TGI [18] greater than 100000 nM. The GI50 [19] was 60.7 nM, the TGI [19] was 10600 nM and the GI50 [20] was 48.4 nM. The TGI [20] was 11200 nM, the GI50 [21] was 168 nM and the TGI [21] was 12400 nM. It also gave a GI50 [22] of 68.9 nM, a TGI [22] of 1400 nM and a GI50 [23] of 159 nM. It also gave a TGI [23] of 1140 nM, a GI50 [24] of 168 nM and a TGI [24] of 13100 nM. For the same molecule, the GI50 [25] was 159 nM, the TGI [25] was 11300 nM and the GI50 [26] was 300 nM. It also gave a TGI [26] of 20600 nM, a GI50 [27] of 353 nM and a TGI [27] of 14600 nM. It also gave a GI50 [28] of 140 nM, a TGI [28] of 825 nM and a GI50 [29] of 20 nM. The TGI [29] was 36.7 nM, the GI50 [30] was 297 nM and the TGI [30] was 10500 nM. The GI50 [31] was 154 nM, the TGI [31] was 664 nM and the GI50 [32] was 275 nM. The TGI [32] was 14700 nM, the GI50 [33] was 74 nM and the TGI [33] was 263 nM. It also gave a GI50 [34] of 428 nM, a TGI [34] of 11900 nM and a GI50 [35] of 5600 nM. The TGI [35] was 18000 nM, the GI50 [36] was 57.5 nM and the TGI [36] was 10600 nM. For the same molecule, the GI50 [37] was 373 nM, the TGI [37] was 15800 nM and the GI50 [38] was 270 nM. The TGI [38] was greater than 100000 nM, the GI50 [39] was 354 nM and the TGI [39] was 13900 nM. It also gave a GI50 [40] of 178 nM, a TGI [40] of 10900 nM and a GI50 [41] of 216 nM. The TGI [41] was 957 nM, the GI50 [42] was 168 nM and the TGI [42] was 660 nM. The GI50 [43] was 244 nM, the TGI [43] was 11000 nM and the GI50 [44] was 316 nM. The TGI [44] was 12000 nM, the GI50 [45] was 108 nM and the TGI [45] was 8860 nM. For the same molecule, the GI50 [46] was 506 nM, the TGI [46] was 4370 nM and the GI50 [47] was 126 nM. It also gave a TGI [47] of 11000 nM, a GI50 [48] of 78.7 nM and a TGI [48] of 348 nM. It also gave a GI50 [49] of 57.4 nM, a TGI [49] of 898 nM and a GI50 [50] of 314 nM. The TGI [50] was 16600 nM, the GI50 [51] was 166 nM and the TGI [51] was greater than 100000 nM. The GI50 [52] was 685 nM, the TGI [52] was 14300 nM and the GI50 [53] was 77.7 nM. For the same molecule, the TGI [53] was 12000 nM, the GI50 [54] was 486 nM and the TGI [54] was 10600 nM. It also gave a GI50 [55] of 416 nM, a TGI [55] of 18500 nM and a GI50 [56] of 45.5 nM. For the same molecule, the TGI [56] was 11400 nM, the GI50 [57] was 288 nM and the TGI [57] was 11500 nM. It also gave a GI50 [58] of 236 nM, a TGI [58] of 10600 nM and a GI50 [59] of 354 nM. For the same molecule, the TGI [59] was 8350 nM.
